Key:
Type in all cases: in vivo
[1] = test system: larvae of the southern green stink bug (Nezara viridula); experiment: Nezara viridula spray test; conditions: in Hordeum vulgare, 96 h
Experimental: Nezara viridula—Spray Test • Solvent: 78.0 parts by weight of acetone • 1.5 parts by weight of dimethylformamide • Emulsifier: alkylarylpolyglycol ether
To produce a suitable preparation of active compound, 1 part by weight of active compound is mixed with the stated amount of solvent, and the concentrate is diluted with water, containing an emulsifier concentration of 1000 ppm, to the desired concentration. Further test concentrations are prepared by dilution with emulsifier containing water.
Barley plants (Hordeum vulgare) are sprayed with a test solution containing the desired concentration of the active ingredient and are infested with larvae of the southern green stink bug (Nezara viridula).
After 4 days mortality in % is determined. 100% means all the stink bugs have been killed; 0% means none of the stink bugs have been killed.

[2] = test system: fall armyworm larvae (Spodoptera frugiperda); experiment: Spodoptera frugiperda spray test (maize leaf sections); conditions: 168 h
Experimental: Spodoptera frugiperda—Spray Test • Solvent: 78.0 parts by weight acetone • 1.5 parts by weight dimethylformamide • Emulsifier: alkylarylpolyglycol ether
(§1) To produce a suitable preparation of active compound, 1 part by weight of active compound is mixed with the stated amount of solvents and is diluted with water, containing an emulsifier concentration of 1000 ppm, to the desired concentration. Further test concentrations are prepared by dilution with emulsifier containing water.
Maize (Zea mays) leaf sections are sprayed with a preparation of the active ingredient of the desired concentration. Once dry, the leaf sections are infested with fall armyworm larvae (Spodoptera frugiperda).
After 7 days mortality in % is determined. 100% means all caterpillars have been killed and 0% means none of the caterpillars have been killed.

[3] = test system: green peach aphid (Myzus persicae); experiment: Myzus persicae spray test; conditions: foliar, 120 h, Chinese cabbage leaf disks, after 5 days
Experimental: Myzus persicae—Spray Test • Solvent: 78.0 parts by weight acetone • 1.5 parts by weight dimethylformamide • Emulsifier: alkylarylpolyglycol ether
as §1
Chinese cabbage (Brassica pekinensis) leaf disks infected with all instars of the green peach aphid (Myzus persicae), are sprayed with a preparation of the active ingredient of the desired concentration.
After 5 days mortality in % is determined. 100% means all aphids have been killed and 0% means none of the aphids have been killed.

[4] = test system: larvae of the banded cucumber beetle (Diabrotica balteata); experiment: Diabrotica balteata spray test; conditions: 168 h, 100 g/ha (=32 μg/well), wheat seeds, after 7 days, read-out: efficacy (seedling growth)
Experimental: Diabrotica Balteata—Spray Test
• Solvent: 78.0 parts by weight of acetone • 1.5 parts by weight of dimethylformamide • Emulsifier: alkylarylpolyglycol ether
Further test concentrations are prepared by dilution with emulsifier containing water.
Soaked wheat seeds (Triticum aestivum) are placed in a multiple well plate filled with agar and some water and are incubated for 1 day to germinate (5 seeds per well). The germinated wheat seeds are sprayed with a test solution containing the desired concentration of the active ingredient. Afterwards each unit is infected with 10-20 larvae of the banded cucumber beetle (Diabrotica balteata).
After 7 days efficacy in % is determined.

[5] = test system: Rhipicephalus microplus larvae (strain Parkhurst, resistant against synthetic pyrethroids); experiment: Rhipicephalus (Boophilus) microplus in-vitro contact test, larval cattle tick; conditions: 5 μg/cm^2 (=500 g/ha), after 48 hours, read-out: efficacy (larvae dead or moribund)
Experimental: Rhipicephalus (Boophilus) Microplus—In-Vitro Contact Tests Larval Cattle Tick (Strain Parkhurst, Resistant Against Synthetic Pyrethroids)
9 mg compound is solved in 1 mL acetone and diluted with acetone to the desired concentration. 250 μL of the test solution is filled in 25 mL glass test tubes and homogeneously distributed on the inner walls by rotation and tilting on a shaking device (2 h at 30 rpm). With a compound concentration of 900 ppm, an inner surface of 44.7 cm^2 and a homogeneous distribution, a dose of 5 μg/cm^2 is achieved.
After the solvent has evaporated, each test tube is filled with 20-50 cattle tick larvae (Rhipicephalus microplus), closed with a perforated lid and incubated in a horizontal position at 85% relative humidity and 27° C. in an incubator. After 48 hours efficacy is determined. The larvae are patted on the ground of the tubes and negative geotactic behavior is recorded.
An efficacy of 100% means all larvae are dead or moribund; 0% means no larvae are dead or moribund.

Structure (SMILES)	mortality at 100 g/ha [1]	mortality at 500 g/ha [1]	mortality at 100 g/ha [2]	mortality at 100 g/ha [3]	pest or weed control at 32 µg/disc, 100 g/ha [4]	pest or weed control at 5 µg/cm2 [5]
C[C@H](NC(=O)c1cc(OC(F)F)cc(S(=O)(=O)C2CC2)c1)c1ncnn1-c1ncc(C#N)s1 [I-50]	90%	100%	100%	90%	–	–
C[C@H](NC(=O)c1cc(OC(F)F)cc(S(C)(=O)=O)c1)c1ncnn1-c1ncc(C#N)s1 [I-54, N-{(1S)-1-[1-(5-cyano-1,3-thiazol-2-yl)-1H-1,2,4-triazol-5-yl]ethyl}-3-(difluoromethoxy)-5-(methylsulfonyl)benzamide]	–	100%	100%	–	–	–
Cc1nc([C@H](C)NC(=O)c2cc(Cl)nc(C(F)(F)F)c2)n(-c2ncc(C(=O)N(C)C)s2)n1 [I-77]	–	–	100%	–	100%	100%
Cc1nc([C@H](C)NC(=O)c2cc(Cl)nc(C(F)(F)F)c2)n(-c2ncc(C(=O)N(C)CC#N)s2)n1 [I-80]	–	–	100%	–	100%	100%
C[C@H](NC(=O)c1cc(Cl)cc(C(F)(F)Br)c1)c1ncnn1-c1ncc(C#N)s1 [I-86]	–	–	100%	100%	100%	–
C[C@H](NC(=O)c1cc(C2CC2)cc(C(C)(F)F)c1)c1ncnn1-c1ncc(C#N)s1 [I-95]	–	–	100%	100%	100%	–
C[C@H](NC(=O)c1cc(OC(F)(F)F)cc(S(=O)(=O)C2CC2)c1)c1nc(C2CC2)nn1-c1ncc(C#N)s1 [I-104]	–	90%	100%	–	100%	–
CNC(=O)c1cnc(-n2ncnc2[C@H](C)NC(=O)c2cc(Br)cc(OC(F)(F)F)c2)s1 [I-111]	–	100%	100%	–	100%	–
C[C@H](NC(=O)c1cc(Br)cc(OC(F)F)c1)c1ncnn1-c1ncc(C(=O)N(C)C)s1 [I-115]	–	90%	100%	–	100%	–
C[C@H](NC(=O)c1cc(C(F)F)cc(C(F)F)c1)c1ncnn1-c1ncc(C(=O)N(C)C)s1 [I-117]	100%	100%	–	–	–	–
C[C@H](NC(=O)c1cc(Cl)cc(S(=O)(=O)C(F)F)c1)c1ncnn1-c1ncc(C(=O)N(C)C)s1 [I-121]	–	100%	–	–	100%	–
C[C@H](NC(=O)c1cc(C(F)F)cc(S(=O)(=O)C2CC2)c1)c1nc(C2CC2)nn1-c1ncc(C#N)s1 [I-123]	–	100%	100%	–	100%	–
C[C@H](NC(=O)c1cc(Cl)cc(S(=O)(=O)C(F)F)c1)c1ncnn1-c1ncc(C#N)s1 [I-134]	–	100%	100%	–	100%	–
C[C@H](NC(=O)c1cc(OC(F)F)cc(S(=O)(=O)C(F)F)c1)c1ncnn1-c1ncc(C#N)s1 [I-136]	100%	100%	100%	–	100%	–
C[C@H](NC(=O)c1cc(OC(F)F)cc(OC(F)F)c1)c1ncnn1-c1ncc(C(=O)N(C)C2CC2)s1 [I-148]	–	–	100%	90%	100%	–
C[C@H](NC(=O)c1cc(OC(F)(F)F)cc(C2CC2)c1)c1ncnn1-c1ncc(C(=O)N(C)C2CC2)s1 [I-152]	–	–	100%	90%	100%	–
C[C@H](NC(=O)c1cc(Br)cc(OC(F)F)c1)c1ncnn1-c1ncc(C(=O)N(C)C2CC2)s1 [I-154]	–	–	100%	90%	100%	–
C[C@H](NC(=O)c1cc(Cl)cc(OC(F)(F)F)c1)c1ncnn1-c1ncc(C(=O)N(C)C2CC2)s1 [I-155]	–	–	100%	90%	100%	–
Cc1nc([C@H](C)NC(=O)c2cc(Cl)cc(S(=O)(=O)C(F)F)c2)n(-c2ncc(C#N)s2)n1 [I-158]	–	90%	100%	–	100%	–
Cc1nc([C@H](C)NC(=O)c2cc(OC(F)(F)F)cc(S(=O)(=O)C(F)F)c2)n(-c2ncc(C#N)s2)n1 [I-161]	–	–	100%	100%	100%	–
Cc1nc([C@H](C)NC(=O)c2cc(OC(F)(F)F)cc(S(=O)(=O)C3CC3)c2)n(-c2ncc(C#N)s2)n1 [I-164]	–	–	100%	–	100%	–
C[C@H](NC(=O)c1cc(C(F)(F)F)cc(Cl)n1)c1ncnn1-c1ncc(C#N)s1 [I-166]	–	100%	100%	–	100%	–
C[C@H](NC(=O)c1cc(Cl)cc(Cl)n1)c1ncnn1-c1ncc(C#N)s1 [I-167]	–	100%	–	–	100%	–
C[C@H](NC(=O)c1cc(Cl)nc(C(F)(F)F)c1)c1ncnn1-c1ncc(C#N)s1 [I-168]	–	100%	100%	–	100%	–
C[C@H](NC(=O)c1cc(OC(F)(F)F)cc(C2(C#N)CC2)c1)c1nc(C2CC2)nn1-c1ncc(C#N)s1 [I-169]	–	100%	100%	–	100%	–
CNC(=O)c1cnc(-n2ncnc2[C@H](C)NC(=O)c2cc(OC(F)(F)F)cc(S(=O)(=O)C(F)F)c2)s1 [I-170]	–	100%	100%	–	100%	–
CNC(=O)c1cnc(-n2nc(C3CC3)nc2[C@H](C)NC(=O)c2cc(OC(F)(F)F)cc(C3CC3)c2)s1 [I-173]	–	100%	–	–	100%	–
C[C@H](NC(=O)c1cncc(OC(F)(F)F)c1)c1ncnn1-c1ncc(C#N)s1 [I-174]	–	100%	–	–	–	–
Cc1nc([C@H](C)NC(=O)c2cncc(OC(F)(F)F)c2)n(-c2ncc(C#N)s2)n1 [I-175]	–	100%	–	–	–	–
